{
  "source": "patent US20070077653A1",
  "about": "“Modulation of cell intrinsic strain to control matrix synthesis, secretion, organization and remodeling” (MEDTRAIN TECHNOLOGIES, LLC, priority 2003, published 2007)",
  "key": {"gel matrix": {"test_system": "gel matrix", "assay": "Gel matrix contraction in a culture system", "type": "cell-based"}, "cell modulus": {"test_system": "cell modulus", "settings": "Wu, H. W. et al., Scanning, 1998; cited from earlier work"}, "elastin": {"test_system": "elastin", "assay": "Gene expression in BATs by quantitative RT-PCR", "type": "cell-based, human", "method": "(§1) Primary human tendon internal fibroblasts (HTIFs) were isolated from discarded human tendon tissue as described previously (Banes et al., J. Ortho Res., 6, 73-82, 1988). HTIFs from passage 2 to 4 were used in this study. BATs™ were fabricated at a cell density of 2 million cells/ml collagen gel suspension (Vitrogen). Cells were incubated at 37° C. for 24 h before addition of 100 pM IL-1β and inhibitors. BAT™ images were recorded with a scanner and automated imaging software, ScanFlex™ (Flexcell International Corp.). Medium was refreshed every 24 h. On day 5, BATs™ were collected, total RNA extracted with an RNeasy mini kit (QIAGen), cDNA synthesized with SuperScriptII (Invitrogen) and quantitative PCR carried out using a quantitative PCR kit from Ambion. The PCR products were separated on 2% agarose gels and the bands were quantitated in Photoshop. The elasticity of BATs™ was tested on day 5. BATs™ were subjected to a maximum stretch (20% elongation, 1 Hz for 1 h) and the BAT images were recorded for 24 h after stretch."}, "[1]": {"test_system": "human tendon internal fibroblast (HTIF)-populated bioartificial tendons (BATs™)", "assay": "Elasticity of BATs by length recovery after maximum stretch", "type": "cell-based", "settings": "100 pM IL-1β", "description": "In order to find a better therapeutic method for tendon/ligament repair and/or replacement, several in vitro models for engineered tendon have been developed recently (Awad et al., J. Biomed. Mater Res., 51(2), 233-240, 2000). One of them is a BioArtificial Tendon (BAT™) model system utilizing tenocyte-populated molded collagen gels (Awad et al., J. Biomed. Mater Res., 51(2), 233-240, 2000). This 3D BAT™ system allows the testing of tenocyte responses to drugs, cytokines and mechanical loading but is too weak to replace conventional grafts materials. In an attempt to modulate the material properties of the cell-gel composite, the influence of IL-1β on the elasticity of human tendon internal fibroblast (HTIF)-populated bioartificial tendons (BATs™) was investigated. IL-1β has been reported to increase the expression of matrix metalloproteinases (MMPs) and elastin. It was hypothesized that IL-1β might increase the elasticity of BATs™ by up-regulating the expression of elastin and down-regulating matrix protein (Collagen I) expression. Gene expression was quantified with quantitative RT-PCR. The elasticity of BATs™ was determined by length recovery after stretch. The influence of IL-1β on the actin cytoskeleton and integrin attachment to matrix in BATs™ was tested +/− cytochalasin D or GRGDTP, respectively.\nas §1, with “BATs™ were fabricated at a cell density of 2 million cells/ml collagen gel suspension (Vitrogen). Cells were incubated at 37° C. for 24 h before addition of 100 pM IL-1β and inhibitors.” left out, “Medium was refreshed every 24 h.” left out, “The elasticity of BATs™ was tested on day 5.” left out"}, "β-actin [2]": {"test_system": "β-actin", "assay": "Cytoskeleton change by rhodamine-phalloidin staining", "type": "cell-based, human", "settings": "100 pM IL-1β"}, "MMPs 1, 2, 3": {"test_system": "MMPs 1, 2, 3", "assay": "Gene expression in BATs by quantitative RT-PCR", "type": "cell-based, human", "settings": "100 pM IL-1β, day 5", "method": "as §1"}, "Collagen I": {"test_system": "Collagen I", "assay": "Gene expression in BATs by quantitative RT-PCR", "type": "cell-based, human", "settings": "100 pM IL-1β, day 5", "method": "as §1"}, "β-actin [3]": {"test_system": "β-actin", "assay": "β-actin expression by quantitative RT-PCR", "type": "cell-based, human", "settings": "100 pM IL-1β; for reduction of β-actin message: 24 h post addition", "method": "Primary HTIFs were isolated after surgery from discarded human tendon tissue as described previously (Banes et al., J. Ortho Res., 6, 73-82, 1988). HTIFs from passage 2 to 4 were used in this study. HTIFs were allowed to attach and spread for 24 h before addition of 100 pM IL-1β. Medium was refreshed every 24 h. […] Young's modulus of HTIFs was measured by aspirating a cell into the bore of a calibrated micropipette with a calibrated vacuum source. The cell-aspiration process was videotaped for subsequent data analysis to calculate the pipette bore size, the steady state pressure required to aspirate a segment of a cell into the pipette bore and the time constant for aspiration. Cytoskeleton change was monitored by rhodamine-phalloidin staining. The expression levels of β-actin was determined by quantitative RT-PCR. Total RNA was extracted with an RNeasy mini kit (QIAGen), cDNA was synthesized with SuperScriptII (Invitrogen) and quantitative PCR was carried out using 18S rRNA as an internal control (Ambion). The PCR products were separated on 2% agarose gels and pixel intensity of the bands was quantitated in Photoshop."}, "[4]": {"test_system": "human tendon internal fibroblast (HTIF)-populated bioartificial tendons (BATs™)", "assay": "Contraction of HTIF-populated BATs (scanner imaging)", "type": "cell-based", "settings": "100 pM IL-1β; 24 h post addition", "method": "as §1"}, "[5]": {"test_system": "human tendon internal fibroblast (HTIF) populated bioartificial tendons (BATs™)", "assay": "Material properties (modulus) of BATs", "type": "cell-based", "settings": "IL-1β treated BATs"}, "[6]": {"test_system": "human tendon internal fibroblasts (HTIFs)", "assay": "Young's modulus of HTIFs by micropipette aspiration", "type": "cell-based", "settings": "100 pM IL-1β, day 5", "method": "Primary HTIFs were isolated after surgery from discarded human tendon tissue as described previously (Banes et al., J. Ortho Res., 6, 73-82, 1988). HTIFs from passage 2 to 4 were used in this study. HTIFs were allowed to attach and spread for 24 h before addition of 100 pM IL-1β. Medium was refreshed every 24 h. On day 5, cells were collected for cell modulus measurement and gene expression analysis. Young's modulus of HTIFs was measured by aspirating a cell into the bore of a calibrated micropipette with a calibrated vacuum source. The cell-aspiration process was videotaped for subsequent data analysis to calculate the pipette bore size, the steady state pressure required to aspirate a segment of a cell into the pipette bore and the time constant for aspiration. Cytoskeleton change was monitored by rhodamine-phalloidin staining. The expression levels of β-actin was determined by quantitative RT-PCR. Total RNA was extracted with an RNeasy mini kit (QIAGen), cDNA was synthesized with SuperScriptII (Invitrogen) and quantitative PCR was carried out using 18S rRNA as an internal control (Ambion). The PCR products were separated on 2% agarose gels and pixel intensity of the bands was quantitated in Photoshop."}},
  "data": [
    {"compound": "Nc1ncnc2c1ncn2[C@@H]1O[C@H](COP(=O)(O)OP(=O)(O)OP(=O)(O)O)[C@@H](O)[C@H]1O", "note": "[ATP, adenosine triphosphate]", "values": [
      {"measurement": "gel matrix contraction", "setting": "gel matrix", "result": "retard gel matrix contraction"}
    ]},
    {"compound": "C=C1[C@@H](C)[C@H]2[C@H](Cc3ccccc3)NC(=O)[C@]23[C@H](OC(C)=O)/C=C/[C@@](C)(O)C(=O)[C@@H](C)C/C=C/[C@H]3[C@@H]1O", "note": "[cytochalasin D]", "values": [
      {"measurement": "cell modulus", "setting": "cell modulus", "result": "decreased cell modulus by up to three fold"}
    ]},
    {"compound": "GRGDTP", "values": [
      {"measurement": "stimulation of elastin mRNA by IL-1β", "setting": "elastin; 100 μg/ml GRGDTP with 100 pM IL-1β", "result": "reduced its stimulation by IL-1β"},
      {"measurement": "elastin mRNA level", "setting": "elastin; 100 μg/ml GRGDTP, without IL-1β", "result": "did not affect"}
    ]},
    {"compound": "interleukin-1beta [IL-1β]", "values": [
      {"measurement": "survival of maximum stretch", "setting": "[1]; 20% elongation, 1 Hz for 1 h, day 5", "result": "survived the maximum stretch"},
      {"measurement": "time for elongated BATs to recover to original length post stretch", "setting": "[1]; after maximum stretch (20% elongation, 1 Hz, 1 h)", "result": 8, "unit": "h"},
      {"measurement": "elasticity of BATs", "setting": "[1]; tested on day 5", "result": "increased the elasticity"},
      {"measurement": "cells with disrupted cytoskeletal structure", "setting": "β-actin [2]; 2D cultures", "result": "about 20%"},
      {"measurement": "protein level of β-actin", "setting": "β-actin [2]; 2D cultures, day 5", "result": "mostly recovered"},
      {"measurement": "fluorescence intensity of rhodamine-phalloidin staining compared to control", "setting": "β-actin [2]; 3D bioartificial tendons, day 5", "result": "much lower"},
      {"measurement": "increase of intercellular space at the perpendicular direction of BATs", "setting": "β-actin [2]; BATs, days 1 and 3", "result": "more than 100%"},
      {"measurement": "protein level of β-actin", "setting": "β-actin [2]; rhodamine-phalloidin staining", "result": "down regulated"},
      {"measurement": "expression of MMPs 1, 2, 3", "setting": "MMPs 1, 2, 3", "result": "up-regulated"},
      {"measurement": "expression of elastin", "setting": "elastin; 100 pM IL-1β, BATs, day 5", "result": "up-regulated"},
      {"measurement": "expression of Collagen I", "setting": "Collagen I", "result": "down-regulated"},
      {"measurement": "reduction of β-actin message", "setting": "β-actin [3]; 2D cultures", "result": "more than 50%"},
      {"measurement": "reduction of β-actin message", "setting": "β-actin [3]; 3D cultures (BATs)", "result": "more than 50%"},
      {"measurement": "message level of β-actin", "setting": "β-actin [3]; 3D cultures, day 3", "result": "returned to normal"},
      {"measurement": "contraction of BATs", "setting": "[4]", "result": "reduced the contraction"},
      {"measurement": "modulus of BATs", "setting": "[5]", "result": "reduced the modulus"},
      {"measurement": "reduction of cell modulus", "setting": "[6]; HTIFs from patient one", "result": 62, "unit": "%"},
      {"measurement": "reduction of cell modulus", "setting": "[6]; HTIFs from patient two", "result": 45, "unit": "%"}
    ]}
  ]
}
